Experiment: xn = mol fraction of the nth substance listed

C[N+](C)(C)Cc1ccccc1.[Cl-] + O=C([O-])c1ccccc1O.[Na+] + O
viscosity [mPa·s], 100 kPa
Conditions	298.15 K	303.15 K	308.15 K	313.15 K	318.15 K
x1 = 9.698e-05, x2 = 0.001545	0.924	0.833	0.75	0.651	0.564
x1 = 9.701e-05, x2 = 0.00127	0.916	0.827	0.744	0.648	0.561
x1 = 9.703e-05, x2 = 0.0009982	0.91	0.821	0.739	0.642	0.557
x1 = 9.706e-05, x2 = 0.0007245	0.905	0.816	0.734	0.637	0.551
x1 = 9.709e-05, x2 = 0.0004525	0.9	0.811	0.729	0.633	0.547
x1 = 9.711e-05, x2 = 0.0001803	0.896	0.807	0.725	0.629	0.543
x1 = 0.0002915, x2 = 0.001548	0.926	0.836	0.753	0.648	0.56
x1 = 0.0002916, x2 = 0.001	0.915	0.824	0.742	0.639	0.552
x1 = 0.0002916, x2 = 0.001272	0.921	0.83	0.747	0.644	0.556
x1 = 0.0002917, x2 = 0.0007258	0.909	0.819	0.736	0.635	0.547
x1 = 0.0002918, x2 = 0.0004533	0.903	0.814	0.732	0.63	0.544
x1 = 0.0002919, x2 = 0.0001807	0.898	0.809	0.727	0.625	0.539
x1 = 0.0004867, x2 = 0.001551	0.932	0.843	0.759	0.664	0.577
x1 = 0.0004868, x2 = 0.001275	0.926	0.836	0.753	0.659	0.572
x1 = 0.0004869, x2 = 0.001002	0.919	0.831	0.748	0.654	0.568
x1 = 0.0004871, x2 = 0.0007272	0.914	0.825	0.743	0.648	0.563
x1 = 0.0004872, x2 = 0.0004542	0.907	0.82	0.737	0.644	0.558
x1 = 0.0004873, x2 = 0.000181	0.903	0.815	0.732	0.64	0.554

CC[n+]1ccn(C)c1.O=S(=O)([N-]S(=O)(=O)C(F)(F)F)C(F)(F)F + O=S(=O)([N-]S(=O)(=O)C(F)(F)F)C(F)(F)F.[Li+]
101 kPa, x1 = 1
Conditions	electrical conductivity [S/m]	viscosity [mPa·s]
288.15 K	0.611	–
298.15 K	0.883	–
313.15 K	–	19.26
333.15 K	2.18	–
343.15 K	–	9.46

CC[n+]1ccn(C)c1.O=S(=O)([N-]S(=O)(=O)C(F)(F)F)C(F)(F)F + O=S(=O)([O-])C(F)(F)F.[Li+]
101 kPa, x1 = 1
Conditions	electrical conductivity [S/m]
288.15 K	0.611
298.15 K	0.883
333.15 K	2.18

C[N+](C)(C)Cc1ccccc1.[Cl-] + OCC(O)CO
Conditions	electrical conductivity, 298 K [S/m]	viscosity, 288.15 K [mPa·s]	viscosity, 308 K [mPa·s]
100 kPa, x1 = 0.25	–	1875	–
101.13 kPa, x1 = 0.5	0.069	–	80

CCCCCCCCCCCC[P+](CCCC)(CCCC)CCCC.N#Cc1ccc[n-]1 + OCCN(CCO)CCO
100 kPa
Conditions	electrical conductivity [S/m]	viscosity [mPa·s]
293.15 K, x1 = 0.001	0.0001	–
293.15 K, x1 = 0.015	0.0027	–
293.15 K, x1 = 0.035	0.0034	1037
293.15 K, x1 = 0.121	–	1056
293.15 K, x1 = 0.538	0.0049	770
293.15 K, x1 = 1	0.0082	567
298.15 K, x1 = 0.035	–	670
298.15 K, x1 = 0.325	–	623
298.15 K, x1 = 0.755	–	477
298.15 K, x1 = 1	–	389
303.15 K, x1 = 0.017	–	436
303.15 K, x1 = 0.054	–	439
303.15 K, x1 = 0.325	–	421
303.15 K, x1 = 0.755	–	336
303.15 K, x1 = 1	–	297
313.15 K, x1 = 0.096	–	217
313.15 K, x1 = 0.325	–	209

CC[n+]1ccn(C)c1.F[B-](F)(F)F + OCCO
Conditions	viscosity [mPa·s]
293.15 K, 100 kPa, x2 = 0.6954	14.9
298.15 K, 100 kPa, x2 = 0.283	19.8
298.15 K, 100 kPa, x2 = 0.4435	15.1
303.15 K, 100 kPa, x2 = 0	34.5
303.15 K, 101 kPa, x1 = 0.4011	9.88
313.15 K, 100 kPa, x2 = 0.4435	9.71
313.15 K, 101 kPa, x1 = 0.4011	7.3
323.15 K, 100 kPa, x2 = 0.4435	7.57
323.15 K, 100 kPa, x2 = 0.5876	6.34
333.15 K, 100 kPa, x2 = 0.4435	6.08
333.15 K, 100 kPa, x2 = 0.5237	5.44
333.15 K, 100 kPa, x2 = 0.8751	4.42
333.15 K, 101 kPa, x1 = 0.0993	4.28
333.15 K, 101 kPa, x1 = 0.2001	4.08
343.15 K, 100 kPa, x2 = 0.4435	5.01
343.15 K, 100 kPa, x2 = 0.5876	4.13
353.15 K, 100 kPa, x2 = 0	9.58
353.15 K, 100 kPa, x2 = 0.5876	3.46
353.15 K, 100 kPa, x2 = 0.6954	3.07
353.15 K, 100 kPa, x2 = 0.7916	2.9

C[N+](CCO)(CCO)CCOCCO.[Cl-] + OCCO
101 kPa, x1 = 0.3322
Conditions	viscosity [mPa·s]
283.15 K	474
288.15 K	335
293.15 K	243.1
298.15 K	179.2
303.15 K	136.1
308.15 K	104.7
313.15 K	81.8
318.15 K	65.1
323.15 K	52.4
328.15 K	42.78
333.15 K	35.43
338.15 K	29.52
343.15 K	24.91
348.15 K	21.24
353.15 K	18.37

CC[n+]1ccn(C)c1.O=S(=O)([N-]S(=O)(=O)C(F)(F)F)C(F)(F)F + OCCOCCOCCOCCO
Conditions	viscosity [mPa·s]
298.15 K, 101 kPa, x2 = 0	32.3

CC[n+]1ccn(C)c1.O=S(=O)([N-]S(=O)(=O)C(F)(F)F)C(F)(F)F + [I-].[Li+]
101 kPa, x1 = 1
Conditions	electrical conductivity [S/m]
288.15 K	0.611
298.15 K	0.883
333.15 K	2.18

CCCC[n+]1ccn(C)c1.[I-] + [I-].[Li+] + O
viscosity [mPa·s], 100 kPa
Conditions	x1 = 0.05, x2 = 0.05	x1 = 0.4, x2 = 0.05
198.25 K	–	1.3e+08
198.65 K	15000	–
203.85 K	6900	1.32e+07
208.75 K	3700	–
209.15 K	–	2900000
213.95 K	1900	490000
218.85 K	1600	180000
224.05 K	1200	68000
228.55 K	–	29000
228.95 K	810	–
233.05 K	470	–
234.15 K	–	15000
236.45 K	320	–
238.25 K	–	8000
241.25 K	220	–
243.85 K	–	3700
246.15 K	150	–
248.75 K	11	–
249.15 K	–	2500
253.95 K	9.7	1600
259.25 K	–	1000
259.65 K	7.7	–
263.4 K	6.1	–
264.1 K	–	600
268.6 K	–	440
268.9 K	5.2	–
273 K	–	280
274 K	4.5	–
278.6 K	4.5	–
279.1 K	–	180
283.55 K	3.9	120
288.45 K	3.6	–
289.15 K	–	82
293.65 K	3.1	65
298.55 K	2.6	41

CC[n+]1ccn(C)c1.O=S(=O)([N-]S(=O)(=O)C(F)(F)F)C(F)(F)F + c1ccccc1
100 kPa
Conditions	viscosity [mPa·s]
298.15 K, x2 = 0.135	25.2
298.15 K, x2 = 0.339	15.64
318.15 K, x2 = 0.471	6.8
328.15 K, x2 = 0	13.68
328.15 K, x2 = 0.339	7.26

Source: the CheMixHub ionic liquid set
